Assay results from US20230220021A1, “CYCLIC PEPTIDE INHIBITORS OF PSD-95 AND USES THEREOF” (University of Copenhagen, priority 2020, published 2023).
Read-outs that look alike come from different tables or passages of the source. Where a SMILES comes first, the peptide text is derived from it. [ ]: non-standard residue; d: D form.

Target: T1, PSD-95-PDZ2 (Homo sapiens, UniProt P78352)
T1 construct: 7xHis (N); made in house; host or cells: Escherichia coli B21 pLys (for the mutants, 'as previously described')
T1 sequence (P78352 160-246 limits assumed): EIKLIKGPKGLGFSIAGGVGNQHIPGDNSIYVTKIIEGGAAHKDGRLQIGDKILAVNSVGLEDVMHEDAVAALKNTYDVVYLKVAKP
Test: Fluorescence polarization (FP) competition assay against cyclic nNOS TAMRA probe
Assay type: binding
Conditions: for Ki: cyclic nNOS TAMRA probe, mean of triplicates, N.B. = not binding; for Relative Ki (Ki mut/Ki WT): FP inhibition constant normalized to WT value

Molecule | Ki (FP competition, read-out: Ki) [nM] | Relative Ki (Ki mut/Ki WT) | further results
CC[C@H](C)[C@@H]1NC(=O)[C@H]([C@@H](C)O)NC(=O)[C@H](CCCCN)NC(=O)[C@@H]2CCCN2C(=O)[C@H]([C@@H](C)O)NC(=O)CNC(=O)[C@H](CC(=O)O)NC(=O)CNC(=O)[C@H]([C@@H](C)O)NC(=O)[C@H](Cc2ccccc2)NC(=O)[C@H]([C@@H](C)O)NC(=O)[C@H]([C@@H](C)O)NC(=O)[C@H](CCC(=O)O)NC(=O)[C@H](CC(C)C)NC(=O)[C@H](Cc2c[nH]cn2)NC(=O)[C@H]([C@@H](C)O)NC(=O)[C@H](CCC(N)=O)NC(=O)CNC(=O)[C@H]2CCCN2C(=O)[C@H](CCC(N)=O)NC(=O)[C@H]([C@@H](C)O)N(C)C(=O)[C@H](C(C)C)NC(=O)[C@H](CCCNC(=N)N)NC1=O [SEQ ID NO: 101] | 600 ± 100 | – | fold improved binding affinity (FP competition, N-methylation): 2 fold
CC[C@H](C)[C@@H]1NC(=O)[C@H]([C@@H](C)O)NC(=O)[C@H](CCCCN)NC(=O)[C@@H]2CCCN2C(=O)[C@@H]([C@H](C)O)NC(=O)CNC(=O)[C@H](CC(=O)O)NC(=O)CNC(=O)[C@H]([C@@H](C)O)NC(=O)[C@H](Cc2ccccc2)NC(=O)[C@H]([C@@H](C)O)NC(=O)[C@H]([C@@H](C)O)NC(=O)[C@H](CCC(=O)O)NC(=O)[C@H](CC(C)C)NC(=O)[C@H](Cc2c[nH]cn2)NC(=O)[C@H]([C@@H](C)O)NC(=O)[C@H](CCC(N)=O)NC(=O)CNC(=O)[C@H]2CCCN2C(=O)[C@H](CCC(N)=O)NC(=O)[C@H]([C@@H](C)O)NC(=O)[C@H](C(C)C)NC(=O)[C@H](CCCNC(=N)N)NC1=O [compound 121] | 2000 | – | –
CC[C@H](C)[C@@H]1NC(=O)[C@H]([C@@H](C)O)NC(=O)[C@H](CCCCN)NC(=O)[C@@H]2CCCN2C(=O)[C@H]([C@@H](C)O)NC(=O)CNC(=O)[C@H](CCCCN)NC(=O)CNC(=O)[C@H]([C@@H](C)O)NC(=O)[C@H](Cc2ccccc2)NC(=O)[C@H]([C@@H](C)O)NC(=O)[C@H]([C@@H](C)O)NC(=O)[C@H](CCC(=O)O)NC(=O)[C@H](CC(C)C)NC(=O)[C@H](Cc2c[nH]cn2)NC(=O)[C@H]([C@@H](C)O)NC(=O)[C@H](CCC(N)=O)NC(=O)CNC(=O)[C@H]2CCCN2C(=O)[C@H](CCC(N)=O)NC(=O)[C@H]([C@@H](C)O)NC(=O)[C@H](C(C)C)NC(=O)[C@H](CCCNC(=N)N)NC1=O [compound 28] (cyclo(THLETTFTGKGTPKTIRVTQ[dP]GQ)) | – | 1.91 | –
CC[C@H](C)[C@@H]1NC(=O)[C@H]([C@@H](C)O)NC(=O)[C@H](CCCCN)NC(=O)[C@@H]2CCCN2C(=O)[C@@H]2CCCN2C(=O)CNC(=O)[C@H](CC(=O)O)NC(=O)CNC(=O)[C@H]([C@@H](C)O)NC(=O)[C@H](Cc2ccccc2)NC(=O)[C@H]([C@@H](C)O)NC(=O)[C@H]([C@@H](C)O)NC(=O)[C@H](CCC(=O)O)NC(=O)[C@H](CC(C)C)NC(=O)[C@H](Cc2c[nH]cn2)NC(=O)[C@H]([C@@H](C)O)NC(=O)[C@H](CCC(N)=O)NC(=O)CNC(=O)[C@H]2CCCN2C(=O)[C@H](CCC(N)=O)NC(=O)[C@H]([C@@H](C)O)NC(=O)[C@H](C(C)C)NC(=O)[C@H](CCCNC(=N)N)NC1=O [compound 31] (cyclo(THLETTFTGDGPPKTIRVTQ[dP]GQ)) | – | 0.77 | –
Cyclo-(THLETT ? -Me-FTGDGTPKTIRVTQpG(Qα)) (THLETTXTGDGTPKTIRVTQPGQ; cyclic; N-methyl F111; D-proline; cyclized peptide; (7)..(7) X is N-Me-F; (21)..(21) is D-AA) [SEQ ID NO: 90] | – | – | effect on interaction with PSD-95-PDZ2 (in words) (FP competition): abolished the interaction
CC[C@H](C)[C@@H]1NC(=O)[C@H]([C@@H](C)O)NC(=O)[C@H](CCCCN)NC(=O)[C@@H]2CCCN2C(=O)[C@H]([C@@H](C)O)NC(=O)CNC(=O)[C@H](CC(=O)O)NC(=O)CNC(=O)[C@H](CC(=O)O)NC(=O)[C@H](Cc2ccccc2)NC(=O)[C@H]([C@@H](C)O)NC(=O)[C@H]([C@@H](C)O)NC(=O)[C@H](CCC(=O)O)NC(=O)[C@H](CC(C)C)NC(=O)[C@H](Cc2c[nH]cn2)NC(=O)[C@H]([C@@H](C)O)NC(=O)[C@H](CCC(N)=O)NC(=O)CNC(=O)[C@H]2CCCN2C(=O)[C@H](CCC(N)=O)NC(=O)[C@H]([C@@H](C)O)NC(=O)[C@H](C(C)C)NC(=O)[C@H](CCCNC(=N)N)NC1=O [compound 19] (cyclo(THLETTFDGDGTPKTIRVTQ[dP]GQ)) | 950 | 0.63 | –
CC[C@H](C)[C@@H]1NC(=O)[C@H]([C@@H](C)O)NC(=O)[C@H](CCCCN)NC(=O)[C@@H]2CCCN2C(=O)[C@H]([C@@H](C)O)NC(=O)CNC(=O)[C@H](CC(=O)O)NC(=O)CNC(=O)[C@H]([C@@H](C)O)NC(=O)[C@H](Cc2ccccc2)NC(=O)[C@H]([C@@H](C)O)NC(=O)[C@H]([C@@H](C)O)NC(=O)[C@H](CCC(=O)O)NC(=O)[C@H](CC(C)C)NC(=O)[C@H](Cc2c[nH]cn2)NC(=O)[C@@H]([C@H](C)O)NC(=O)[C@H](CCC(N)=O)NC(=O)CNC(=O)[C@H]2CCCN2C(=O)[C@H](CCC(N)=O)NC(=O)[C@H]([C@@H](C)O)NC(=O)[C@H](C(C)C)NC(=O)[C@H](CCCNC(=N)N)NC1=O [compound 112] | 14600 | – | –
CC[C@H](C)[C@@H]1NC(=O)[C@H]([C@@H](C)O)NC(=O)[C@H](CCCCN)NC(=O)[C@@H]2CCCN2C(=O)[C@H](Cc2c[nH]c3ccccc23)NC(=O)CNC(=O)[C@H](CC(=O)O)NC(=O)CNC(=O)[C@H]([C@@H](C)O)NC(=O)[C@H](Cc2ccccc2)NC(=O)[C@H]([C@@H](C)O)NC(=O)[C@H]([C@@H](C)O)NC(=O)[C@H](CCC(=O)O)NC(=O)[C@H](CC(C)C)NC(=O)[C@H](Cc2c[nH]cn2)NC(=O)[C@H]([C@@H](C)O)NC(=O)[C@H](CCC(N)=O)NC(=O)CNC(=O)[C@H]2CCCN2C(=O)[C@H](CCC(N)=O)NC(=O)[C@H]([C@@H](C)O)NC(=O)[C@H](C(C)C)NC(=O)[C@H](CCCNC(=N)N)NC1=O [compound 36] (cyclo(THLETTFTGDGWPKTIRVTQ[dP]GQ)) | – | 0.69 | –
86 (THXETTFTGDGTPKTIRVTQPGQ; cyclized peptide; (3)..(3) X is N-Me-L; (21)..(21) is D-AA) [compound 86] | – | – | Ki (FP competition): N.B.
CC[C@H](C)[C@@H]1NC(=O)[C@H]([C@@H](C)O)NC(=O)[C@H](CCCCN)NC(=O)[C@@H]2CCCN2C(=O)[C@H]([C@@H](C)O)NC(=O)CNC(=O)[C@H](CC(=O)O)NC(=O)CNC(=O)[C@H]([C@@H](C)O)NC(=O)[C@H](Cc2ccccc2)NC(=O)[C@H]([C@@H](C)O)NC(=O)[C@H]([C@@H](C)O)NC(=O)[C@H](CCC(=O)O)NC(=O)[C@H](CC(C)C)NC(=O)[C@H](Cc2c[nH]cn2)NC(=O)[C@H]([C@@H](C)O)NC(=O)[C@H](CCC(N)=O)NC(=O)CNC(=O)[C@H]2CCCN2C(=O)[C@H](CCC(N)=O)NC(=O)[C@@H]([C@H](C)O)NC(=O)[C@H](C(C)C)NC(=O)[C@H](CCCNC(=N)N)NC1=O [compound 128] | 1830 | – | –
CC[C@H](C)[C@@H]1NC(=O)[C@H]([C@@H](C)O)NC(=O)[C@H](CCCCN)NC(=O)[C@@H]2CCCN2C(=O)[C@H]([C@@H](C)O)NC(=O)CNC(=O)[C@H](CC(=O)O)NC(=O)CNC(=O)[C@H]([C@@H](C)O)NC(=O)[C@H](Cc2ccccc2)NC(=O)[C@H]([C@@H](C)O)NC(=O)[C@H]([C@@H](C)O)NC(=O)[C@H](CCC(=O)O)NC(=O)[C@H](CC(C)C)NC(=O)[C@@H](Cc2c[nH]cn2)NC(=O)[C@H]([C@@H](C)O)NC(=O)[C@H](CCC(N)=O)NC(=O)CNC(=O)[C@H]2CCCN2C(=O)[C@H](CCC(N)=O)NC(=O)[C@H]([C@@H](C)O)NC(=O)[C@H](C(C)C)NC(=O)[C@H](CCCNC(=N)N)NC1=O [compound 113] | 13100 | – | –
